Source: PubChem BioAssay (NCI)
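Grown in 96-well plates, cells were treated for 48 hours with each compound at five concentrations. Insufficient inhibition: endpoint recorded as highest concentration tested. Definition used: TGI = concentration required for complete inhibition of growth.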 Where a SMILES comes first, the peptide text is derived from it. [ ]: non-standard residue; d: D form. Ac5c = NC1(C(=O)O)CCCC1

Assays:
Assay in all cases: inhibition of tumour cell growth, NCI panel, 48 h
IGROV1 ovarian = test system: IGROV1 ovarian
SNB-75 CNS = test system: SNB-75 CNS
K-562 leukemia = test system: K-562 leukemia
PC-3 prostate = test system: PC-3 prostate
SK-MEL-5 melanoma = test system: SK-MEL-5 melanoma
NCI-H522 lung = test system: NCI-H522 lung
ACHN renal = test system: ACHN renal
RPMI-8226 leukemia = test system: RPMI-8226 leukemia
SNB-19 CNS = test system: SNB-19 CNS
UO-31 renal = test system: UO-31 renal
CCRF-CEM leukemia = test system: CCRF-CEM leukemia
SF-539 CNS = test system: SF-539 CNS
HCC-2998 colon = test system: HCC-2998 colon
SK-OV-3 ovarian = test system: SK-OV-3 ovarian
HCT-116 colon = test system: HCT-116 colon
MOLT-4 leukemia = test system: MOLT-4 leukemia
SK-MEL-28 melanoma = test system: SK-MEL-28 melanoma
COLO 205 colon = test system: COLO 205 colon
SF-268 CNS = test system: SF-268 CNS
MDA-MB-435 = test system: MDA-MB-435
EKVX NSCLC = test system: EKVX NSCLC
MDA-N = test system: MDA-N
MDA-MB-231 breast = test system: MDA-MB-231 breast
HCT-15 colon = test system: HCT-15 colon
HS 578T breast = test system: HS 578T breast
HT29 colon = test system: HT29 colon
HL-60(TB) leukemia = test system: HL-60(TB) leukemia
SW-620 colon = test system: SW-620 colon
A549 NSCLC = test system: A549 NSCLC
SN12C renal = test system: SN12C renal
T-47D breast = test system: T-47D breast
HOP-62 NSCLC = test system: HOP-62 NSCLC
SF-295 CNS = test system: SF-295 CNS
UACC-257 melanoma = test system: UACC-257 melanoma
OVCAR-8 ovarian = test system: OVCAR-8 ovarian
KM12 colon = test system: KM12 colon
MCF7 breast = test system: MCF7 breast
NCI-H460 lung = test system: NCI-H460 lung
M14 melanoma = test system: M14 melanoma
SR leukemia = test system: SR leukemia
786-0 renal = test system: 786-0 renal
TK-10 renal = test system: TK-10 renal
NCI-H23 lung = test system: NCI-H23 lung
OVCAR-5 ovarian = test system: OVCAR-5 ovarian
LOX IMVI melanoma = test system: LOX IMVI melanoma
NCI-H226 lung = test system: NCI-H226 lung
CAKI-1 renal = test system: CAKI-1 renal
HOP-92 NSCLC = test system: HOP-92 NSCLC
A498 renal = test system: A498 renal
OVCAR-3 ovarian = test system: OVCAR-3 ovarian
RXF 393 renal = test system: RXF 393 renal
NCI/ADR-RES ovarian = test system: NCI/ADR-RES ovarian
SK-MEL-2 melanoma = test system: SK-MEL-2 melanoma
MALME-3M melanoma = test system: MALME-3M melanoma
U251 CNS = test system: U251 CNS
DU-145 prostate = test system: DU-145 prostate
UACC-62 melanoma = test system: UACC-62 melanoma

**Q.** Which results are given for `COC(=O)C1(NC(=O)C(C)NC(=O)C(CCCCN)NC(=O)C(CC(C)C)NC(C)=O)CCCC1` (configuration not stated) (Ac-LKA[Ac5c]-OMe; configuration not given here)?
**A.** TGI (IGROV1 ovarian): > 100 µM; TGI (SNB-75 CNS): > 100 µM; TGI (K-562 leukemia): > 100 µM; TGI (PC-3 prostate): > 100 µM; TGI (SK-MEL-5 melanoma): > 100 µM; TGI (NCI-H522 lung): > 100 µM; TGI (ACHN renal): > 100 µM; TGI (RPMI-8226 leukemia): > 100 µM; TGI (SNB-19 CNS): > 100 µM; TGI (UO-31 renal): > 100 µM; TGI (CCRF-CEM leukemia): > 100 µM; TGI (SF-539 CNS): > 100 µM; TGI (HCC-2998 colon): > 100 µM; TGI (SK-OV-3 ovarian): > 100 µM; TGI (HCT-116 colon): > 100 µM; TGI (MOLT-4 leukemia): > 100 µM; TGI (SK-MEL-28 melanoma): > 100 µM; TGI (COLO 205 colon): > 100 µM; TGI (SF-268 CNS): > 100 µM; TGI (MDA-MB-435): > 100 µM; TGI (EKVX NSCLC): > 100 µM; TGI (MDA-N): > 100 µM; TGI (MDA-MB-231 breast): > 100 µM; TGI (HCT-15 colon): > 100 µM; TGI (HS 578T breast): > 100 µM; TGI (HT29 colon): > 100 µM; TGI (HL-60(TB) leukemia): > 100 µM; TGI (SW-620 colon): > 100 µM; TGI (A549 NSCLC): > 100 µM; TGI (SN12C renal): > 100 µM; TGI (T-47D breast): > 100 µM; TGI (HOP-62 NSCLC): > 100 µM; TGI (SF-295 CNS): > 100 µM; TGI (UACC-257 melanoma): > 100 µM; TGI (OVCAR-8 ovarian): > 100 µM; TGI (KM12 colon): > 100 µM; TGI (MCF7 breast): > 100 µM; TGI (NCI-H460 lung): > 100 µM; TGI (M14 melanoma): > 100 µM; TGI (SR leukemia): > 100 µM; TGI (786-0 renal): > 100 µM; TGI (TK-10 renal): > 100 µM

**Q.** Which results are given for `C/C(=N\NC(=O)c1ccncc1)c1cccc(F)c1`?
**A.** TGI (IGROV1 ovarian): > 10 µM; TGI (SNB-75 CNS): > 10 µM; TGI (K-562 leukemia): > 10 µM; TGI (PC-3 prostate): > 10 µM; TGI (SK-MEL-5 melanoma): > 10 µM; TGI (ACHN renal): > 10 µM; TGI (NCI-H23 lung): > 10 µM; TGI (RPMI-8226 leukemia): > 10 µM; TGI (SNB-19 CNS): > 10 µM; TGI (UO-31 renal): > 10 µM; TGI (CCRF-CEM leukemia): > 10 µM; TGI (SF-539 CNS): > 10 µM; TGI (HCC-2998 colon): > 10 µM; TGI (SK-OV-3 ovarian): > 10 µM; TGI (OVCAR-5 ovarian): > 10 µM; TGI (HCT-116 colon): > 10 µM; TGI (MOLT-4 leukemia): > 10 µM; TGI (SK-MEL-28 melanoma): > 10 µM; TGI (COLO 205 colon): > 10 µM; TGI (SF-268 CNS): > 10 µM; TGI (LOX IMVI melanoma): > 10 µM; TGI (MDA-N): > 10 µM; TGI (HCT-15 colon): > 10 µM; TGI (HL-60(TB) leukemia): > 10 µM; TGI (NCI-H226 lung): > 10 µM; TGI (SW-620 colon): > 10 µM; TGI (CAKI-1 renal): > 10 µM; TGI (A549 NSCLC): > 10 µM; TGI (SN12C renal): > 10 µM; TGI (T-47D breast): > 10 µM; TGI (HOP-92 NSCLC): > 10 µM; TGI (A498 renal): > 10 µM; TGI (OVCAR-3 ovarian): > 10 µM; TGI (HOP-62 NSCLC): > 10 µM; TGI (SF-295 CNS): > 10 µM; TGI (RXF 393 renal): > 10 µM; TGI (NCI/ADR-RES ovarian): > 10 µM; TGI (SK-MEL-2 melanoma): > 10 µM; TGI (OVCAR-8 ovarian): > 10 µM; TGI (KM12 colon): > 10 µM; TGI (MALME-3M melanoma): > 10 µM; TGI (MCF7 breast): > 10 µM; TGI (NCI-H460 lung): > 10 µM; TGI (M14 melanoma): > 10 µM; TGI (U251 CNS): > 10 µM; TGI (SR leukemia): > 10 µM; TGI (786-0 renal): > 10 µM; TGI (TK-10 renal): > 10 µM

**Q.** For `N#Cc1nc(C(O)c2ccccc2)oc1N` (configuration not stated), which TGI (IGROV1 ovarian) is on record?
**A.** > 100 µM

**Q.** And the TGI (SNB-75 CNS)?
**A.** > 100 µM

**Q.** And the TGI (K-562 leukemia)?
**A.** > 100 µM

**Q.** What about the TGI (PC-3 prostate) of the same molecule?
**A.** > 100 µM

**Q.** And the TGI (SK-MEL-5 melanoma)?
**A.** > 100 µM

**Q.** And the TGI (NCI-H522 lung)?
**A.** > 100 µM

**Q.** And the TGI (ACHN renal)?
**A.** > 100 µM

**Q.** What about the TGI (NCI-H23 lung) of the same molecule?
**A.** > 100 µM

**Q.** And the TGI (RPMI-8226 leukemia)?
**A.** > 100 µM

**Q.** What about the TGI (SNB-19 CNS) of the same molecule?
**A.** > 100 µM

**Q.** And the TGI (UO-31 renal)?
**A.** > 100 µM

**Q.** What about the TGI (CCRF-CEM leukemia) of the same molecule?
**A.** > 100 µM

**Q.** And the TGI (SF-539 CNS)?
**A.** > 100 µM

**Q.** And the TGI (SK-OV-3 ovarian)?
**A.** > 100 µM

**Q.** What about the TGI (OVCAR-5 ovarian) of the same molecule?
**A.** > 100 µM

**Q.** And the TGI (HCT-116 colon)?
**A.** > 100 µM

**Q.** And the TGI (DU-145 prostate)?
**A.** > 100 µM

**Q.** What about the TGI (MOLT-4 leukemia) of the same molecule?
**A.** > 100 µM

**Q.** And the TGI (SK-MEL-28 melanoma)?
**A.** > 100 µM

**Q.** And the TGI (COLO 205 colon)?
**A.** > 100 µM

**Q.** What about the TGI (SF-268 CNS) of the same molecule?
**A.** > 100 µM

**Q.** And the TGI (LOX IMVI melanoma)?
**A.** > 100 µM

**Q.** What about the TGI (EKVX NSCLC) of the same molecule?
**A.** > 100 µM

**Q.** What about the TGI (MDA-N) of the same molecule?
**A.** > 100 µM

**Q.** What about the TGI (MDA-MB-231 breast) of the same molecule?
**A.** > 100 µM

**Q.** And the TGI (HS 578T breast)?
**A.** > 100 µM

**Q.** What about the TGI (HT29 colon) of the same molecule?
**A.** > 100 µM

**Q.** What about the TGI (HL-60(TB) leukemia) of the same molecule?
**A.** > 100 µM

**Q.** What about the TGI (NCI-H226 lung) of the same molecule?
**A.** > 100 µM

**Q.** And the TGI (SW-620 colon)?
**A.** > 100 µM

**Q.** What about the TGI (CAKI-1 renal) of the same molecule?
**A.** > 100 µM

**Q.** And the TGI (A549 NSCLC)?
**A.** > 100 µM

**Q.** And the TGI (SN12C renal)?
**A.** > 100 µM

**Q.** And the TGI (T-47D breast)?
**A.** > 100 µM

**Q.** What about the TGI (HOP-92 NSCLC) of the same molecule?
**A.** > 100 µM

**Q.** What about the TGI (A498 renal) of the same molecule?
**A.** > 100 µM

**Q.** And the TGI (OVCAR-3 ovarian)?
**A.** > 100 µM

**Q.** And the TGI (HOP-62 NSCLC)?
**A.** > 100 µM

**Q.** And the TGI (SF-295 CNS)?
**A.** > 100 µM

**Q.** What about the TGI (RXF 393 renal) of the same molecule?
**A.** > 100 µM

**Q.** What about the TGI (UACC-257 melanoma) of the same molecule?
**A.** > 100 µM

**Q.** What about the TGI (NCI/ADR-RES ovarian) of the same molecule?
**A.** > 100 µM

**Q.** What about the TGI (UACC-62 melanoma) of the same molecule?
**A.** > 100 µM

**Q.** And the TGI (SK-MEL-2 melanoma)?
**A.** > 100 µM

**Q.** What about the TGI (OVCAR-8 ovarian) of the same molecule?
**A.** > 100 µM

**Q.** What about the TGI (KM12 colon) of the same molecule?
**A.** > 100 µM

**Q.** What about the TGI (MALME-3M melanoma) of the same molecule?
**A.** > 100 µM

**Q.** And the TGI (MCF7 breast)?
**A.** > 100 µM

**Q.** What about the TGI (M14 melanoma) of the same molecule?
**A.** > 100 µM

**Q.** What about the TGI (U251 CNS) of the same molecule?
**A.** > 100 µM

**Q.** What about the TGI (786-0 renal) of the same molecule?
**A.** > 100 µM

**Q.** And the TGI (TK-10 renal)?
**A.** > 100 µM
